# According to patent EP4635949A1 (Jiangsu NHWA Pharmaceutical Co., Ltd, priority 2022, dated 2024):
# Read-outs that look alike come from different tables or passages of the source.
# Columns and labels:
# [1] = target: T1, OX1 receptor (Homo sapiens, UniProt O43613); assay: Orexin target function test (Cisbio HTRF IP-one), CHO-K1-OX1 cells, antagonism of EC80 Orexin A; type: cell-based
# T1 construct: host or cells: CHO-K1
# T1 sequence (O43613 1-425): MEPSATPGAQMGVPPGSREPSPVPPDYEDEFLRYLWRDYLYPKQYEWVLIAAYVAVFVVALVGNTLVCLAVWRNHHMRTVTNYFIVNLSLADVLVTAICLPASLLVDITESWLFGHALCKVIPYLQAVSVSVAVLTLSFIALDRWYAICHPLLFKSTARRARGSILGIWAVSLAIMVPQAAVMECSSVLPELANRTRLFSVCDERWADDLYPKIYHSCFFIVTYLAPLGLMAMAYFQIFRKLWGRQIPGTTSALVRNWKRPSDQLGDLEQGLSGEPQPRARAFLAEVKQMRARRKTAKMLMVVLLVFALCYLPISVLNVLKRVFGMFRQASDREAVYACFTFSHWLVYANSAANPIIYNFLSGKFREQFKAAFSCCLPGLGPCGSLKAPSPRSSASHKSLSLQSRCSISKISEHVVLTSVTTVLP
# Experimental: (§1) Using Cisbio HTRF IP-one kit to detect the changes in IP-one concentration of orexin receptor (OX1/OX2) signaling pathway by microplate reader, and calculating the IC50 value of the compound to evaluate the antagonistic effect of the compound on OX1 and OX2 receptors.
# (§2) The cells were centrifuged at 1000 rpm for 5 minutes and the supernatant was discarded. 3 mL of PBS was added, and gently blown with a pipette to mix. After centrifugation at 1000 rpm for 5 minutes again, the supernatant was discarded. […] Based on the antagonistic effect values of the compound samples at different concentrations, the GraphPad Prism software was used to fit the orexin receptor antagonism curve of the compound samples and calculate the IC50.
# [2] = target: T2, OX2 receptor (Homo sapiens, UniProt O43614); assay: Orexin target function test (Cisbio HTRF IP-one), CHO-K1-OX2 cells, antagonism of EC80 Orexin 2 receptor agonist; type: cell-based
# T2 construct: host or cells: CHO-K1
# T2 sequence (O43614 1-444): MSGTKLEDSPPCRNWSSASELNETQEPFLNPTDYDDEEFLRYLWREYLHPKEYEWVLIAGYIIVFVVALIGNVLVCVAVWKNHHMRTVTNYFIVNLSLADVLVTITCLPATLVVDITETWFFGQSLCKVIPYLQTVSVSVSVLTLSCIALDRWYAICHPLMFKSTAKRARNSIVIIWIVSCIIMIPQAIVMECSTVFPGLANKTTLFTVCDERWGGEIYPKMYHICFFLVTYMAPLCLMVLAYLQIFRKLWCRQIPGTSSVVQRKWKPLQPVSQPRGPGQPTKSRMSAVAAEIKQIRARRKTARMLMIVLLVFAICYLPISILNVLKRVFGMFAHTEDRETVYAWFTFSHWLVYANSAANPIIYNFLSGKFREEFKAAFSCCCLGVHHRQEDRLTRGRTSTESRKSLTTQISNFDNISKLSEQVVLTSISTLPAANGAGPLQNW
# Experimental: as §1, §2
# [3] = in vivo; conditions: male, SD, rat, plasma
# [4] = ratio of OX1R IC50 to OX2R IC50
# [5] = CHO-K1-OX1 cells, IP-one, read-out: hOXIR IC50
# [6] = CHO-K1-OX2 cells, IP-one, read-out: hOX2R IC50
SMILES,IC50 [1] [nM],IC50 [2] [nM],"Selectivity [2, 4]","IC50 [1, 5] [nM]","IC50 [2, 6] [nM]",also measured
"Cc1nc(C2=CC3CN(C(=O)c4c(F)cccc4-n4nccn4)CC3C2)nc2ccoc12 (centres unmarked) [Compound 18, (2-fluoro-6-(2H-1,2,3-triazol-2-yl)phenyl)(5-(4-methylfuro[3,2-d]pyrimidin-2-yl)-3,3a,4,6a-tetrahydrocyclopenta[c]pyrrol-2(1H)-yl)methanone]",2310,23.4,99,–,–,–
"[2H]C([2H])([2H])c1cnc(OC)c(C2=CC3CN(C(=O)c4ccc(OC)cc4-n4nccn4)CC3C2)n1 (centres unmarked) [Compound 56, [4-methoxy-2-(2H-1,2,3-triazol-2-yl)phenyl][5-[3-methoxy-6-(methyl-d3)pyrazin-2-yl]-3,3a,4,6a-tetrahydrocyclopentyl[c]pyrrol-2(1H)-yl]methanone]",–,–,144,2300,16,–
"[2H]C([2H])([2H])Oc1ccc(C(=O)N2CC3C=C(c4nc(C)c(F)c(C)n4)CC3C2)c(-n2nccn2)c1 (centres unmarked) [Compound 36, (5-(5-fluoro-4,6-dimethylpyrimidin-2-yl)-3,3a,4,6a-tetrahydrocyclopenta[c]pyrrol-2(1H)-yl)(4-(methoxy-d3)-2-(2H-1,2,3-triazol-2-yl)phenyl)methanone]",3100,18,–,–,–,Selectivity [2]: 172
"Cc1nc(C2=CC3CN(C(=O)c4c(F)cccc4-n4nccn4)CC3C2)nc2c1OCC2 (centres unmarked) [Compound 19, (2-fluoro-6-(2H-1,2,3-triazol-2-yl)phenyl)(5-(4-methyl-6,7-dihydrofuro[3,2-d]pyrimidin-2-yl)-3,3a,4,6a-tetrahydrocyclopenta[c]pyrrol-2(1H)-yl)methanone]",–,–,138,2480,18,–
"COc1ncc(C2CC2)nc1C1=CC2CN(C(=O)c3ccc(F)cc3-n3nccn3)CC2C1 (centres unmarked) [Compound 55, [5-(6-cyclopropyl-3-methoxypyrazin-2-yl)-3,3a,4,6a-tetrahydrocyclopenta[c]pyrrol-2(1H)-yl][4-fluoro-2-(2H-1,2,3-triazol-2-yl)phenyl]methanone]",1900,28,67,–,–,–
"Cc1nc(C2=CC3CN(C(=O)c4c(F)cccc4-c4cc[nH]n4)CC3C2)nc(C)c1F (centres unmarked) [Compound 29, (5-(5-fluoro-4,6-dimethylpyrimidin-2-yl)-3,3a,4,6a-tetrahydrocyclopenta[c]pyrrol-2(1H)-yl)(2-fluoro-6-(1H-pyrazol-3-yl)phenyl)methanone]",–,–,64,1280,20,–
"Cc1nc(C2=CC3CN(C(=O)c4c(F)cccc4-n4nccn4)CC3C2)nc2c1COCC2 (centres unmarked) [Compound 16, (2-fluoro-6-(2H-1,2,3-triazol-2-yl)phenyl)(5-(4-methyl-7,8-dihydro-5H-pyrano[4,3-d]pyrimidin-2-yl)-3,3a,4,6a-tetrahydrocyclopenta[c]pyrrol-2(1H)-yl)methanone]",–,–,94,1880,20,–
"[2H]C([2H])([2H])Oc1ncc(C)nc1C1=CC2CN(C(=O)c3ccc(OC)cc3-n3nccn3)CC2C1 (centres unmarked) [Compound 58, [4-methoxy-2-(2H-1,2,3-triazol-2-yl)phenyl][5-[3-(methoxy-d3)-6-methylpyrazin-2-yl]-3,3a,4,6a-tetrahydrocyclopentyl[c]pyrrol-2(1H)-yl]methanone]",–,–,83,1980,24,–
"[2H]C([2H])([2H])Oc1cc(-n2nccn2)c(C(=O)N2CC3C=C(c4nc(C)c(F)c(C)n4)CC3C2)cn1 (centres unmarked) [Compound 34, (5-(5-fluoro-4,6-dimethylpyrimidin-2-yl)-3,3a,4,6a-tetrahydrocyclopenta[c]pyrrol-2(1H)-yl)(6-(methoxy-d3)-4-(2H-1,2,3-triazol-2-yl)pyridin-3-yl)methanone]",5000,24,–,–,–,Selectivity [2]: 208
"Cc1nc(C2=CC3CN(C(=O)c4c(F)cccc4-n4nccn4)CC3C2)nc2c1CCCC2 (centres unmarked) [Compound 14, (2-fluoro-6-(2H-1,2,3-triazol-2-yl)phenyl)(5-(4-methyl-5,6,7,8-tetrahydroquinazolin-2-yl)-3,3a, 4,6a-tetrahydrocyclopenta[c]pyrrol-2(1H)-yl)methanone]",–,–,114,2750,24,–
"COc1ncc(C)nc1C1=CC2CN(C(=O)c3c(F)cccc3-c3ncccn3)CC2C1 (centres unmarked) [Compound 43, (2-fluoro-6-(pyrimidin-2-yl)phenyl)(5-(3-methoxy-6-methylpyrazin-2-yl)-3,3a,4,6a-tetrahydrocyclopenta[c]pyrrol-2(1H)-yl)methanone]",–,–,75,2100,28,–
"COc1ccc(C(=O)N2CC3C=C(c4nc(CF)cnc4OC)CC3C2)c(-n2nccn2)c1 (centres unmarked) [Compound 59, [5-[6-(fluoromethyl)-3-methoxypyrazin-2-yl]-3,3a,4,6a-tetrahydrocyclopentyl[c]pyrrol-2(1H)-yl][4-methoxy-2-(2H-1,2,3-triazol-2-yl)phenyl]methanone]",–,–,106,1800,17,–
"CCc1c(C)nc(C2=CC3CN(C(=O)c4c(F)cccc4-n4nccn4)CC3C2)nc1C (centres unmarked) [Compound 11, (5-(5-ethyl-4,6-dimethylpyrimidin-2-yl)-3,3a,4,6a-tetrahydrocyclopenta[c]pyrrol-2(1H)-yl)(2-fluoro-6-(2H-1,2,3-triazol-2-yl)phenyl)methanone]",–,–,72,1950,27,–
"Cc1nc(C2=CC3CN(C(=O)c4c(F)cccc4-n4nccn4)CC3C2)nc2c1CCC2 (centres unmarked) [Compound 17, (2-fluoro-6-(2H-1,2,3-triazol-2-yl)phenyl)(5-(4-methyl-6,7-dihydro-5H-cyclopenta[d]pyrimidin-2-yl)-3,3a,4,6a-tetrahydrocyclopenta[c]pyrrol-2(1H)-yl)methanone]",2880,22,131,–,–,–
COc1ccc(C(=O)N2C[C@H]3CC(c4nc(Cl)cnc4OC)=C[C@H]3C2)c(-n2nccn2)c1 (relative stereo) [Compound 54],–,–,118,2600,22,–
"COc1cnc(OC)c(C2=CC3CN(C(=O)c4ccc(F)cc4-n4nccn4)CC3C2)n1 (centres unmarked) [Compound 50, [5-(3,6-dimethoxypyrazin-2-yl)-3,3a,4,6a-tetrahydrocyclopenta[c]pyrrol-2(1H)-yl][4-fluoro-2-(2H-1,2,3-triazol-2-yl)phenyl]methanone]",3610,27,134,–,–,–
"COc1ccc(C(=O)N2CC3C=C(c4nc(OC)cnc4OC)CC3C2)c(-n2nccn2)c1 (centres unmarked) [Compound 53, [5-(3,6-dimethoxypyrazin-2-yl)-3,3a,4,6a-tetrahydrocyclopenta[c]pyrrol-2(1H)-yl][4-methoxy-2-(2H-1,2,3-triazol-2-yl)phenyl]methanone]",–,–,89,2860,32,–
"Cc1cnc(C#N)c(C2=CC3CN(C(=O)c4ccc(F)cc4-n4nccn4)CC3C2)n1 (centres unmarked) [Compound 62, 3-[2-[4-fluoro-2-(2H-1,2,3-triazol-2-yl)benzoyl]-1,2,3,3a,4,6a-hexahydrocyclopenta[c]pyrrol-5-yl]-5-methylpyrazine-2-carbonitrile]",–,–,92,1650,18,–
"Cc1nc(C2=CC3CN(C(=O)c4c(F)cccc4-n4nccn4)CC3C2)nc(C(C)(C)O)c1F (centres unmarked) [Compound 37, (5-(5-fluoro-4-(2-hydroxypropan-2-yl)-6-methylpyrimidin-2-yl)-3,3a,4,6a-tetrahydrocyclopenta[c]pyrrol-2(1H)-yl)(2-fluoro-6-(2H-1,2,3-triazol-2-yl)phenyl)methanone]",–,–,–,–,–,"AUC(0-t) ([3]; iv, 1 mg/kg): 626 ng·h/mL; Cmax ([3]; iv, 1 mg/kg): 980 ng/mL; AUC(0-t) ([3]; po, 30 mg/kg): 16800 ng·h/mL; Cmax ([3]; po, 30 mg/kg): 9240 ng/mL; bioavailability ([3]; po, 30 mg/kg): 89.3%"
"[2H]C([2H])([2H])c1nc(C2=CC3CN(C(=O)c4ccc(F)cc4-n4nccn4)CC3C2)nc(C([2H])([2H])[2H])c1F (centres unmarked) [Compound 30, (4-fluoro-2-(2H-1,2,3-triazol-2-yl)phenyl)(5-(5-fluoro-4,6-bis(methyl-d3)pyrimidin-2-yl)-3,3a,4,6a-tetrahydrocyclopenta[c]pyrrol-2(1H)-yl)methanone]",3920,21,186,–,–,–
